The text below walks through data of paper PMC11651181, “Discovery of 6α-Thiazolylcarboxamidonaltrexamine Derivative (NTZ) as a Potent and Central Nervous System Penetrant Opioid Receptor Modulator with Drug-like Properties for Potential Treatment of Opioid Use Disorder” (ACS Pharmacology & Translational Science, 2024).

Molecules are shown by their SMILES. Counter-ions that a name gives are not always drawn. Like-named read-outs stand apart in the source and are kept apart here. A value given as a limit tells only on which side of the number the result lay.

As usually defined, the inhibition is the percentage by which the read-out fell short of the control. The low end stands for little suppression, the high end for strong suppression. Broadly, the half-life is the time needed for the level to fall by half in the phase considered. Read a high half-life as slow decline. In general, microsomal CLint refers to the rate of metabolic loss divided by the concentration. A high value points to rapid turnover. The Ki is the dissociation constant of the complex between target and ligand, obtained from inhibition or displacement. A high value points to weaker binding.

The target in one data set is T1, CYP2A6 (Homo sapiens, UniProt P11509).
T1 construct: Eurofins Panlabs, Inc. (contract laboratory)
T1 sequence (P11509 1-494): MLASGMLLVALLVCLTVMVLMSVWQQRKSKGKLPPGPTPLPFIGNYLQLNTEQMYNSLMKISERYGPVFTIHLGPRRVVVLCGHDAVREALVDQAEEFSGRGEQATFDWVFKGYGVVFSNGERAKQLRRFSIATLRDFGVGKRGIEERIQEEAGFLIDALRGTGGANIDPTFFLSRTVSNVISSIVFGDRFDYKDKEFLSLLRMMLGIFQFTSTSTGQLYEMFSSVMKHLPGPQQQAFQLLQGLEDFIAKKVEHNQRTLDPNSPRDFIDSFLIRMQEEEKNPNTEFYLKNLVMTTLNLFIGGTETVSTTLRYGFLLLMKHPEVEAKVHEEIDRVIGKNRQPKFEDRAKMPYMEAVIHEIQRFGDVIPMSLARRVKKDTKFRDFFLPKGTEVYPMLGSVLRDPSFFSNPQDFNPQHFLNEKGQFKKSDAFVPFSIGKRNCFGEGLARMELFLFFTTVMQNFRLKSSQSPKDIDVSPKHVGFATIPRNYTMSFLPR
The experiment in a line: Cytochrome P450 inhibition assay, CYP2A6. Type of data set: in vitro ADME. As to the method: (§1) The ADMET assessment including the hERG inhibitory activity, plasma protein binding, in vitro metabolic stability profile, CYP inhibitory effect and mutagenic evaluation were conducted by Eurofins Panlabs, Inc.[21],[61],[69]−[71]

Data set [1] in a line: In vitro metabolic stability in Sprague-Dawley rat liver microsomes. Type of data set: in vitro ADME. To be noted: 1.0E-07 M; for % Compound Remaining, mean: rat liver microsomes. As to the method: as §1
For orientation: Liver microsomes are vesicles of endoplasmic reticulum, rich in cytochrome P450 enzymes.

A further data set relates to typical tester strains. The experiment in a line: Bacterial reverse mutation assay. To be noted: up to 100 μM. How it is done: as §1
The target in a further data set is T2, κ opioid receptor (KOR) (Mus musculus, UniProt P33534).
T2 construct: expressed in transfected cells; host or cells: CHO (mKOR-CHO), membrane preparation
The experiment in a line: Competitive radioligand binding assay, KOR. As to the method: The competition binding assay was performed using monoclonal mouse opioid receptors expressed in CHO cell lines (monoclonal human δ opioid receptor was used for the DOR assay).
The bound radioligand was separated using a Brandel harvester. Specific binding to the MOR, KOR, and DOR was calculated by subtracting the binding observed in the presence of 5 μM naltrexone, U50488, and SNC80, respectively, from the binding in their absence. Relative affinity values (IC50) were determined by fitting displacement binding inhibition data to a nonlinear regression model using GraphPad Prism 8.0 (GraphPad Software, San Diego, CA). The % inhibition was calculated using the formula: % inhibition = 100% - [(binding with the tested compound - nonspecific binding)/specific binding] × 100%. The IC50 values were converted to Ki values using the Cheng-Prusoff equation: Ki = IC50/ [1 + ([L*]/KD)], where [L*] is the concentration of the radioligand and KD is the KD of the radioligand.[68]

Data set [2] can be described thus: In vivo BBB-penetration studies (LC-MS/MS of brain and plasma). To be noted: 10 mg/kg s.c.; for Brain concentration / concentration at 5 min / concentration at 10 min / concentration at 30 min: n = 3, mean ± SD; for concentration at 5 min / concentration at 10 min / concentration at 30 min: subcutaneous. On the set-up: species or system mouse. As to the method:
Swiss Webster mice (three mice each time point) were administered compound 6 (10 mg/kg, s.c.) or vehicle. At 5-, 10-, and 30 min time points post administration, the mice were euthanized by decapitation, and blood and brain samples were collected. Blood samples were centrifuged at 15,000 g for 10 min at 4 °C to isolate plasma. Brains were washed twice with saline before harvesting and stored in saline until homogenization. Both brain and plasma samples were kept at −80 °C until further analysis.
Compound 6 was identified and quantified in mouse plasma and brain using a modified version of a previously established method, with naloxone-d5 as the internal standard.[20] In brief, compound 6 was extracted from both blood and brain using naloxone-d5 as the internal standard (ISTD) by a liquid/liquid extraction. Before extraction, brain tissue samples were homogenized at a ratio of one-part tissue to three-parts water. Seven-point calibration curves (10–1000 ng/mL or ng/g) were prepared for in plasma, and included drug free control, negative control (lacking internal standard, ISTD) for plasma and brain, and quality control samples in plasma and brain (30, 300, and 750 ng/mL or ng/g). […], used as the internal standard, was added at a concentration of 10 ng/mL to either 100 μL of blood or 400 μL for brain homogenate to each calibrator, control, or sample, excluding the negative control. To these samples 0.5 mL of saturated carbonate/bicarbonate buffer (1:1, pH 9.5) and 2.0 mL of chloroform: isopropanol (8:2) were added. The mixtures were vortexed, centrifuged and the top aqueous layer was removed. The organic layer was transferred to a clean test tube and evaporated to dryness under nitrogen. The residues were reconstituted in 80:20 methanol: water and transferred to autosampler vials for analysis. Chromatographic separation of compound 6 and naltrexone-d5 was performed using a Shimadzu Nexera X2 liquid chromatography system with a Zorbax XDB-C18 4.6 × 75 mm, 3.5-μm column (Agilent Technologies, Santa Clara, CA). The mobile phase consisted of water with 1 g/L ammonium formate and 0.1% formic acid (Phase A) and methanol (Phase B). The flow rate was maintained at 1 mL/min. The gradient started at 20% B, increased to 80% within 1 min, and was held for 1.5 min before returning to the initial conditions. Detection was carried out using a Sciex 6500 QTRAP system with an IonDrive Turbo V source for TurbolonSpray (Sciex, Ontario, Canada). The curtain gas flow rate set to 30 mL/min while the ion source gases 1 and 2 were set to 60 mL/min. The source temperature was maintained at 650 °C and the ionspray voltage was set at 5500 V. The declustering potential was […]. The following quantification and qualifying transition ions were monitored in positive multiple reaction monitoring (MRM) mode with collisions energies in parentheses: compound 6 455> 437 (26), 455 > 268 & (41); naloxone-d5 333> 212 (45), &333 > 315 (25). Retention times of compound 6 and naloxone-d5 were 1.81 and 1.69 min, respectively. The total run time was 4 min. Compound 6 concentration was determined by linear regression plot based on peak area ratios of the calibrators.

Where [3] appears, read: Sprague-Dawley rat liver microsomes.

`O=C(N[C@H]1CC[C@@]2(O)[C@H]3Cc4ccc(O)c5c4[C@@]2(CCN3CC2CC2)[C@H]1O5)c1nccs1` [Compound 6, 17-Cyclopropylmethyl-3,14β-dihydroxy-4,5α-epoxy-6α-(2′-thiazolylcarboxamido)-morphinan hydrochloride] had an inhibition at 10 µM at CYP2A6 (1.0E-05 M) of 7.8%. For the same molecule, testing at 100 nM on CYP2A6 (1.0E-07 M) gave an inhibition of 6.3%. Also, in data set [1] (setting [3]), the half-life at 100 nM was above 1 h. The microsomal CLint at 100 nM in data set [1] (setting [3]) is below 38.5 µL/min/mg. The “% Compound Remaining, mean” value in data set [1] (15 min) stood at 106%; in data set [1] (30 min), 115%; in data set [1] (45 min), 103%; in data set [1] (60 min), 105%. For the same molecule, the “Mutagenic potential, in words” value with typical tester strains was “no mutagenic potential”. In addition, the Ki on κ opioid receptor (KOR) was determined as 1.3 ± 0.12 nM. Further, the “Selectivity κ/μ” value on κ opioid receptor (KOR) (ratio of Ki values) amounted to 5. Also, the “Decrease in the plasma levels over 30 min” value in data set [2] stood at 33%. Also, the Brain concentration in data set [2] (5 min) was determined as 0.187 ± 0.07 µg/g; in data set [2] (10 min), 0.235 ± 0.06 µg/g; in data set [2] (30 min) it was 0.264 ± 0.05 µg/g. In addition, in data set [2] (Swiss Webster, mouse, brain and plasma, sc, 5 min, read-out: Brain-to-Plasma ratio), the Kp at 5 min was 0.102. Also, the Kp at 10 min in data set [2] (Swiss Webster, mouse, brain and plasma, sc, 10 min, read-out: Brain-to-Plasma ratio) was determined as 0.173. Also, in data set [2] (Swiss Webster, mouse, brain and plasma, sc, 30 min, read-out: Brain-to-Plasma ratio), the Kp at 0.5 h amounted to 0.217. For the same molecule, the concentration at 5 min turned out to be 187 ng/g in data set [2] (Swiss Webster, mouse, brain, 5 min, read-out: Brain concentration) and 1820 ± 280 ng/mL in data set [2] (Swiss Webster, mouse, plasma, 5 min, read-out: Plasma concentration). The concentration at 10 min in data set [2] (Swiss Webster, mouse, brain, 10 min, read-out: Brain concentration) was found to be 235 ng/g; in data set [2] (Swiss Webster, mouse, plasma, 10 min, read-out: Plasma concentration), 1360 ± 210 ng/mL. Moreover, the concentration at 30 min is 264 ng/g in data set [2] (Swiss Webster, mouse, brain, 30 min, read-out: Brain concentration) and 1220 ± 330 ng/mL in data set [2] (Swiss Webster, mouse, plasma, 30 min, read-out: Plasma concentration).
